Columns and labels:
Notch signaling in hMSCs = test: RBPjP-dependent Notch luciferase reporter in hMSCs cultured on Jag1 coated plates; assay type: cell-based, human
Experimental: This lentivirus expresses GFP allowing determination of infection efficiency after 24 hours and during multiple passages of the cells. […] A protocol for coating culture dishes with the recombinant Jag1 protein using 5 μg/ml, 10 μg/ml, and 15 μg/ml concentrations of Jag1 and 10 μg/ml concentration of IgG as controls was established. […] Next, to confirm that this Jag1 coating technology induced Notch signaling in hMSCs, hMSCs transfected with the RBPjP-dependent Notch luciferase reporter were cultured on 5 μg/ml, 10 μg/ml, and 15 μg/ml Jag1 and IgG coated plates.

hMSCs [1] = test: Real-time RT-PCR of Notch target and stem cell regulator genes in hMSCs on Jag1 coated plates; assay type: cell-based, human; conditions: Jag1 coated plates 10 μg/ml, passage 3 hMSCs, 24 hours
Experimental: (§1) To determine if Notch signaling can induce important regulators of stem cell maintenance, passage 3 hMSCs were cultured on Jag1 and IgG coated plates for 24 hours and isolated RNA for real-time RT-PCR analyses (FIG. 11B). […] Therefore, Jag1/Notch signaling regulated hMSC maintenance and expansion via this network of stem cell factors. Finally, the same culture system and passage 3 hMSCs were used to determine if Jag1 regulated the proliferation of hMSCs over a relatively short time interval. BrdU ELISA assays were performed for hMSCs cultured on Jag1 and IgG coated plates for 24 hours.

hMSCs [2] = test: BrdU ELISA proliferation assay of hMSCs on Jag1 coated plates; assay type: cell-based, human; conditions: passage 3 hMSCs, 24 hours, vs IgG
Experimental: as §1

cleaved Notch2 (NICD2) = test: Western blot for cleaved, active Notch2 (NICD2) in cultured limb-bud derived MSCs; assay type: cell-based, mouse; conditions: DAPT 1 um, cultured overnight, vs absence of DAPT
Experimental: Total protein was isolated from either whole mouse limb-bud tissue or cultured limb-bud derived MSCs using Golden lysis buffer. The cultured limb-bud derived MSCs were plated at the density of 6×10^6 cells in 10 cm dishes and cultured overnight in 10% FBS DMEM media both in the presence and absence of DAPT (1 um). Protein samples (˜100 μg) from each isolation were subsequently separated on 10% SDS-polyacrylamide and transferred to a PVDF membrane. NICD1 and NICD2 cleaved proteins were detected using the bTAN 20 (Notch1) and C651.6DdHN (Notch2) primary antibodies (0.4 ug/ml) and then further probed with appropriate secondary antibody (1:3000). Anti-β-actin antibody (Sigma; St. Louis, Mo.) was used as a control for equal protein loading. Immunoblots were detected using Supersignal west femto maximum sensitivity substrate (Pierce; Rockford, Ill.).
To determine which Notch receptor is active in the limb-bud mesenchyme, total protein was isolated from cultured MSCs in the presence and absence of the Notch inhibitor, N-(3,5-difluorophenylacetyl-L-alanyl)]-S-phenylglycine t-ButylEster (DAPT, Calbiochem; San Diego, Calif.), or directly from wild-type E11.5 whole limb-bud tissue, and performed western blot analyses using Notch1 and Notch2 antibodies that can detect the cleaved or active (NICD) form of the receptor. […]

limb-bud derived MSCs [3] = test: Limb-bud MSC micromass chondrogenic differentiation (Alcian blue staining, real-time RT-PCR); assay type: cell-based, mouse
Experimental: (§2) Limb-bud derived MSCs were isolated from E11.5 CD1 mouse embryos as previously described (Zhang et al., Bone 34:809-17 (2004)). For chondrogenic differentiation, MSCs were seeded in micromass (1×10^5 cells in […]) in 12-well plates for 1.5 hours before adding standard media, media containing DAPT (1 μM), or media containing Hes1 shRNA lentivirus. Cells were cultured for a time-course of 6 hours, 3, 5, and 7 days prior to harvest for cartilage staining (1% Alcian blue/3% glacial acetic acid) or total RNA isolations. Limb-bud derived MSCs were also cultured in monolayer for 21 days and treated with either osteogenic (10 nM dexamethasone; 50 μM ascorbic acid; 10 mM β-glycerolphosphate) or adipogenic medium (Millipore; Billerica, Mass.) in the presence and absence of DAPT. Fixed MSCs were stained for osteoblastic differentiation using an alkaline phosphatase stain (nitro blue tetrazolium chloride/5-bromo-4-chloro-3-indolyhosphate P-toluidine salt) or adipogenic differentiation using an Oil Red-O staining solution (0.36%). Total RNA was isolated from monolayer cultures at day 21 for use in real-time RT-PCR analyses.
(§3) Embryonic limb-bud tissues or micromass cultures were frozen in liquid nitrogen and then homogenized in Trizol Reagent (Invitrogen; Carlsbad, Calif.) via rendering through a 25-gauge needle and syringe. Total cellular RNA was extracted following the manufacture's protocol. RNA was quantified using a NanoDrop spectrophotometer (NanoDrop; Wilmington, Del.) and equal concentrations of total RNA were pooled for synthesis of cDNA. Total RNA (1 μg) was reverse transcribed using the iScript™ cDNA synthesis kit (Bio-Rad; Hercules, Calif.) according to the manufacture's instructions. Reverse transcribed cDNA was analyzed by real-time RT-PCR with mouse-specific primers for: Sox9, Runx2, Col2a1, Agc1, Col1a1, Ap, Oc, Pparγ, Jagged1, Jagged2, Delta-like1, Delta-like3, Delta-like4, Notch1, Notch2, Notch3, Notch4, Hes1, Hes3, Hes5, Hes7, Hey1, Hey2, HeyL, and CyclinD1. Primers were designed using Applied Biosystems software (Applied Biosystems; Foster City, Calif.). Sequences are available upon request. DNA amplification was achieved using the SYBR® Green PCR Master Mix (Applied Biosystems; Foster City, Calif.) and the RotorGene real-time DNA amplification system (Corbett Research; Sydney, Australia). Gene expression was normalized to β-actin expression levels and then normalized to control samples.
To determine the role of Notch signaling in MSCs, Notch loss-of-function assays were performed on E11.5 limb-bud derived MSC cultures using the Notch inhibitor, DAPT. […] The effect of DAPT was also assessed on the expression of the chondrogenic markers Sox9, Col2a1, and Agc1 via real-time RT-PCR.

limb-bud derived MSCs [4] = test: Limb-bud MSC osteogenic monolayer differentiation (alkaline phosphatase staining, real-time RT-PCR); assay type: cell-based, mouse; conditions: DAPT 1 μM, 21 days
Experimental: as §2
as §3, with “Sequences are available upon request. DNA amplification was achieved using the SYBR® Green PCR Master Mix (Applied Biosystems; Foster City, Calif.) and the RotorGene real-time DNA amplification system (Corbett Research; Sydney, Australia). Gene expression was normalized to β-actin expression levels and then normalized to control samples.” left out

limb-bud derived MSCs [5] = test: Limb-bud MSC adipogenic monolayer differentiation (Oil Red-O staining, real-time RT-PCR); assay type: cell-based, mouse; conditions: DAPT 1 μM, 21 days
Experimental: as §2
as §3, with “Sequences are available upon request. DNA amplification was achieved using the SYBR® Green PCR Master Mix (Applied Biosystems; Foster City, Calif.) and the RotorGene real-time DNA amplification system (Corbett Research; Sydney, Australia). Gene expression was normalized to β-actin expression levels and then normalized to control samples.” left out

Which “hMSC growth, cell size, shape, cell survival on coated plates” value (Notch signaling in hMSCs; Jag1 coated plates) does the source give for “Jag1: recombinant Jag1 protein, Notch ligand, coated on culture dishes to activate Notch signaling” here?
The value was “no obvious changes in cell size, shape, or cell survival”.

What about the “luciferase activity of Notch reporter” value (Notch signaling in hMSCs; plates coated with 10 μg/ml Jag1, 5, 10 and 15 μg/ml compared, IgG control) of the same compound?
Its value is “maximal luciferase activity”.

And the “Oct4 expression compared to Sox2 and Nanog” value (hMSCs [1])?
Its value is “only mildly enhanced”.

What about the “Hes1 expression over controls” value (hMSCs [1]; vs IgG) of the same compound?
The value was “approximately 7 fold”.

And the “expression of Oct4, Sox2, and Nanog” value (hMSCs [1]; vs IgG)?
Its value is “induced the expression”.

What about the “increase of BrdU incorporation as compared to controls” value (hMSCs [2]) of the same compound?
Its value is “more than 50%”.

`C[C@H](NC(=O)Cc1cc(F)cc(F)c1)C(=O)N[C@H](C(=O)OC(C)(C)C)c1ccccc1` [DAPT] was tested. Which “abundance of the cleaved Notch2 (NICD2)” value (cleaved Notch2 (NICD2)) did it give?
The value was “reduce the abundance of the cleaved Notch2 (NICD2)”.

What about the cartilage nodule formation (limb-bud derived MSCs [3]; 1 μM DAPT, micromass culture, Alcian blue) of the same compound?
The cartilage nodule formation was “significantly enhanced cartilage nodule formation”.

What about the Agc1 expression (limb-bud derived MSCs [3]; DAPT 1 μM, day 7, real-time RT-PCR) of the same compound?
The Agc1 expression was “significantly reduced”.

What about the “Sox9, Col2a1, and Agc1 expression” value (limb-bud derived MSCs [3]; DAPT 1 μM, first 3-5 days of culture, vs untreated cultures, real-time RT-PCR) of the same compound?
The value was “enhanced”.

And the “limb-bud MSC differentiation” value (limb-bud derived MSCs [3]; continuous DAPT 1 μM vs vehicle, chondrogenic, osteogenic and adipogenic cultures (FIG. 2A-2C))?
Its value is “enhances limb-bud MSC differentiation without biasing lineage determination”.

What about the alkaline phosphatase staining (limb-bud derived MSCs [4]; osteogenic media) of the same compound?
The alkaline phosphatase staining was “elevated alkaline phosphatase staining”.

What about the “osteoblastic differentiation of MSCs” value (limb-bud derived MSCs [4]; osteogenic media) of the same compound?
Its value is “enhanced normal osteoblastic differentiation”.

What about the “expression of osteoblast marker genes Col1a1, AP, and Oc” value (limb-bud derived MSCs [4]; real-time RT-PCR) of the same compound?
Its value is “significant increase”.

And the “Oil Red-0 staining” value (limb-bud derived MSCs [5]; adipogenic media)?
Its value is “elevated Oil Red-0 staining”.

And the “adipogenic differentiation of MSCs” value (limb-bud derived MSCs [5]; adipogenic media)?
The value was “enhanced normal adipogenic differentiation”.

What about the “expression of the adipocyte marker gene Pparγ” value (limb-bud derived MSCs [5]; real-time RT-PCR) of the same compound?
The value was “increase”.
